Experimental data as given in PMC7724566, “Prospects for Clinical Development of Stat5 Inhibitor IST5-002: High Transcriptomic Specificity in Prostate Cancer and Low Toxicity In Vivo” (Cancers, 2020).

Tests used:
JAK2 = JAK2 (Homo sapiens, UniProt O60674); assay: Cell-based tyrosine phosphorylation of Jak kinases (IP/immunoblot); design: endogenous in cells; host or cells: DU145 and CWR22Pc; details: 6 µM, 6 h
Source text: (§1) Figure 5 Both IST5 and IST5-M suppress dimerization of Stat5 with similar efficacies in prostate cancer cells. (A), IST5 and IST5-M inhibit equally potently dimerization of Stat5 in native-gel-based Stat5 dimerization assay. CWR22Rv1 cells were transfected with STAT5A-eYFP (Stat5 wild type), STAT5A-N642H-eYFP (constitutive activated Stat5 by N642H mutation, as a positive control) or STAT3-eYFP (Stat3 wild type, as a negative control) constructs for 3 days. CWR22Rv1 cells were serum-starved for 16 h, pretreated with vanadate (1 mM) for 2 h, followed by treatment with vehicle, IST5 and IST5-M (1 µM) for 6 h and stimulation with Prl (10 nM) for 1 h. Dimerization of Stat5 was analyzed by detection of the eYFP fluorescence of the native Coomassie gel. (B), IST5 and IST5-M inhibited cytokine-induced dimerization of Stat5 with high efficacy in PC cells. PC-3 cells were co-transfected with pCMV-3Flag-Stat5a, pCMV-3Myc-Stat5a, and pPrlR plasmids. Cells were serum-starved for 16 h, pretreated with IST5, IST5-M or vehicle at indicated concentrations for 2 h, followed by stimulation with Prl (10 nM) for 30 min. Anti-MYC mAb was utilized to immunoprecipitate the MYC-tagged Stat5a and blotted with anti-FLAG mAb or anti-MYC mAb, as indicated. […] (C), densitometric analyses of the Stat5 dimerization data based on co-immunoprecipitations and immunoblotting in (B). […] Prostate cancer cells were treated with IST5 (6 µM) or vehicle for 6 h. Jak1, Jak2, Jak3 and Tyk2 were immunoprecipitated and blotted with anti-phospho-tyrosine, Jak1, Jak2, Jak3 and Tyk2 antibodies. Whole cell lysates (WCL) were immunoblotted for actin. (E), differences in posttranslational modifications were detected between native and recombinant STAT5a using mass spectrometry. Native STAT5a from CWR22Rv1 cells and recombinant STAT5a from E. coli were gel-purified, digested using trypsin, and analyzed by bottom-up mass spectrometry. Native full-length STAT5a (blue) is show with recombinant STAT5A highlighted (red). Sites of acetylation and phosphorylation from the respective sources are noted including two previously published sites of phosphorylation (asterisk).
(§2) Given that IST5 suppresses phosphorylation of Stat5 in PC cells, it is possible that IST5 inhibits the kinase(s) responsible for Stat5 phosphorylation and activation in PC cells. To evaluate if IST5 affects kinase activity in cancer cells, we tested kinase inhibitory activity of IST5 in two custom-tailored panels including 54 relevant kinases (Table 1), including Jak1, Jak2, Jak3, Tyk2, Abl1, Abl2, Lck, Fyn, Src and TrkB/C. In addition, we further tested if IST5 inhibits tyrosine phosphorylation of Jak1, Jak2, Jak3 or Tyk2 using a cell-based assay (Figure 5D), where phosphorylation of the kinase is indicative of enzymatic kinase activity. DU145 and CWR22Rv1 cells were treated with IST5 (6 µM) for 6 h followed by immunoprecipitation of Jak1, Jak2, Jak3 and Tyk2 and immunoblotting with anti-phospho-tyrosine antibody. […] Collectively, these findings indicate that the inhibitory effect of IST5 on Stat5 phosphorylation in cancer cells is not due to inhibition of Jak2 or other key kinases including Jak1, Jak3, Tyk2, Src, Lck, Fyn, TrkB/C, Abl1 or Abl2 (Table 1, Figure 5D).
(§3) Cell pellets were solubilized in the lysis buffer (10 mM Tris-HCl (pH 7.6), 5 mM EDTA, 50 mM sodium chloride, 30 mM sodium pyrophosphate, 50 mM sodium fluoride, 1 mM sodium orthovanadate, 1% Triton X-100, 1 mM phenylmethylsulfonyl fluoride, 5 µg/mL aprotinin, 1 µg/mL pepstatin A and 2 µg/mL leupeptin), and protein concentrations of clarified cell lysates were determined by a simplified Bradford method (Bio-Rad, Hercules, CA, USA). The whole cell lysates were immunoprecipitated with polyclonal antibodies (Table S1) followed by incubation with protein A-Sepharose beads (GE Healthcare, Chicago, IL, USA). […]

JAK3 = target: T1, JAK3 (Homo sapiens, UniProt P52333); assay: as above; design: endogenous in cells; host or cells: DU145 and CWR22Pc; details: 6 µM, 6 h
T1 sequence (P52333 1-1124): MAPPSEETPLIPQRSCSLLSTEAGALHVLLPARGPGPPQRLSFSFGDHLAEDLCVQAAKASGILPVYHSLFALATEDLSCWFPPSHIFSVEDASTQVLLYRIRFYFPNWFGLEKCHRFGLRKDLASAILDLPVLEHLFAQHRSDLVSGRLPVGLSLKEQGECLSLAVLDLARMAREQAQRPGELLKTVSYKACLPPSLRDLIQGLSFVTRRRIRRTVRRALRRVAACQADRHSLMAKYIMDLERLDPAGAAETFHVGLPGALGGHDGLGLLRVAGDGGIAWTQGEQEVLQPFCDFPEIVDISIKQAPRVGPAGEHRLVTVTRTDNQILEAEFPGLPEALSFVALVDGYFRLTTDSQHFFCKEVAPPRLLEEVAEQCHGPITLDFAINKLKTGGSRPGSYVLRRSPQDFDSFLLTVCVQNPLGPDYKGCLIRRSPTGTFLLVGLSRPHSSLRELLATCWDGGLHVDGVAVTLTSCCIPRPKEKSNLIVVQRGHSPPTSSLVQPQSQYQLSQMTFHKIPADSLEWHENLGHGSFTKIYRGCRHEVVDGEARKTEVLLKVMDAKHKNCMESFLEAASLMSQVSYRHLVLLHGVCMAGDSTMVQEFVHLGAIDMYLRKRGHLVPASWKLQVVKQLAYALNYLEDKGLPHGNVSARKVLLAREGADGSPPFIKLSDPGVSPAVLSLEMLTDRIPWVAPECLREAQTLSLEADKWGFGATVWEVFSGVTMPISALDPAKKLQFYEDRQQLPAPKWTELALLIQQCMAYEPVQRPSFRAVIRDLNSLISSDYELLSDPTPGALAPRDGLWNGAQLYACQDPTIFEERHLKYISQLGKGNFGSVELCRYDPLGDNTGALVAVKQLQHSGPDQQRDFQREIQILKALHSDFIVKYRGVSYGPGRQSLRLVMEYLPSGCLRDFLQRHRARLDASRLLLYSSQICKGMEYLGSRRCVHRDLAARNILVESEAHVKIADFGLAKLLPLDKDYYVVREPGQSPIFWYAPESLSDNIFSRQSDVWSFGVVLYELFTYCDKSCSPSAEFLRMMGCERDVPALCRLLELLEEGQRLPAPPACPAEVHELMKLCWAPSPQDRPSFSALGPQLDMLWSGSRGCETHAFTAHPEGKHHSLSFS
Source text: as §1, §2, §3

Chain of JAK2 (O60674 whole entry): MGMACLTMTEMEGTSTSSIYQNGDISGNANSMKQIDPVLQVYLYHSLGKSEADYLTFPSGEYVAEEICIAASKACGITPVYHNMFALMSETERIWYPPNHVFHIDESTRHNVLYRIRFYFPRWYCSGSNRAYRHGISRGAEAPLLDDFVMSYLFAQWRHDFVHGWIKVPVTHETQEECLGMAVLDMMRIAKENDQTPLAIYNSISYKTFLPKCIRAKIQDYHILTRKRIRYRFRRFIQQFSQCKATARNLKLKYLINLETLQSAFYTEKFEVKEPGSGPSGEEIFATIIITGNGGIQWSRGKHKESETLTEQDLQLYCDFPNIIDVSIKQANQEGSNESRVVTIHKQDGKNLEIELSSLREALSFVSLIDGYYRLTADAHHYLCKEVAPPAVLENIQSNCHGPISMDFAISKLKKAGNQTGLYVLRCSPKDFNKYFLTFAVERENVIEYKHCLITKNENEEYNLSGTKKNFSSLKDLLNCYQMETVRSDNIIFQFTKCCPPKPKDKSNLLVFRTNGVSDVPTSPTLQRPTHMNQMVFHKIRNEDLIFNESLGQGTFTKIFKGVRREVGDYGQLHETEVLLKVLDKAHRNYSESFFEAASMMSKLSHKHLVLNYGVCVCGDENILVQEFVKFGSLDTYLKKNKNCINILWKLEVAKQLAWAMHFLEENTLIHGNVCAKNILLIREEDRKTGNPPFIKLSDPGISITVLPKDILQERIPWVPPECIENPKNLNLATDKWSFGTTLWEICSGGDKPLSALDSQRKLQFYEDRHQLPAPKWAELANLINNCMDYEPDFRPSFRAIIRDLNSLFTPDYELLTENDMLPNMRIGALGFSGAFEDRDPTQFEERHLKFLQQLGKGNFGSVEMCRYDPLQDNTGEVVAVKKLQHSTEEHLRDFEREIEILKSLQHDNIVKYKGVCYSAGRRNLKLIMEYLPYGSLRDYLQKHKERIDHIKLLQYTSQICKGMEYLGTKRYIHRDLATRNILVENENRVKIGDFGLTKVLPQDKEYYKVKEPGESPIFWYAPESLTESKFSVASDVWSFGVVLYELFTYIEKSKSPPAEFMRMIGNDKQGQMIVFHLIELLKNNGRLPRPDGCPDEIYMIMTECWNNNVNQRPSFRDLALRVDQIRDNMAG

O=P(O)(O)OCC1OC(n2cnc3c(NCc4ccccc4)ncnc32)C(O)C1O (stereo not shown) [IST5]
did not alter: phosphorylation of Jak2 (JAK2; CWR22Pc cells) | phosphorylation of Jak2 (JAK2; DU145 cells) | phosphorylation of Jak3 (JAK3; CWR22Pc cells) | phosphorylation of Jak3 (JAK3; DU145 cells)
